Laboratory results as given in US20250081967A1, “PESTICIDALLY ACTIVE HETEROCYCLIC DERIVATIVES WITH SULFOXIMINE CONTAINING SUBSTITUENTS” (SYNGENTA CROP PROTECTION AG, priority 2021, published 2025).

What was measured:
Assay type in all cases: in vivo
[1] = system: Myzus persicae; assay: Activity against Myzus persicae (green peach aphid), feeding/contact activity, sunflower leaf discs; details: for mortality at 200 ppm: 144 h, application rate 200 ppm, feeding/contact, 6 days after infestation
Procedure: Example B4: Activity Against Myzus persicae (Green Peach Aphid) Feeding/Contact Activity
Sunflower leaf discs were placed on agar in a 24-well microtiter plate and sprayed with aqueous test solutions prepared from 10′000 ppm DMSO stock solutions. After drying, the leaf discs were infested with an aphid population of mixed ages. The samples were assessed for mortality 6 days after infestation.

[2] = system: Bemisia tabaci; assay: Activity against Bemisia tabaci (cotton white fly), cotton leaf discs; details: foliar; for mortality at 200 ppm: 144 h, application rate 200 ppm, adult white flies, 6 days after incubation; for mortality at 12.5 ppm: concentration 12.5 ppm
Procedure: Example B6: Activity Against Bemisia tabaci (Cotton White Fly)
Cotton leaf discs were placed on agar in 24-well microtiter plates and sprayed with aqueous test solutions prepared from 10′000 ppm DMSO stock solutions. After drying the leaf discs were infested with adult white flies. The samples were checked for mortality 6 days after incubation.

[3] = system: Myzus persicae; assay: Activity against Myzus persicae (green peach aphid), systemic activity, pea seedlings; details: Myzus persicae
Procedure: Example B5: Activity Against Myzus persicae (Green Peach Aphid) Systemic Activity
Roots of pea seedlings infested with an aphid population of mixed ages were placed directly in the aqueous test solutions prepared from 10′000 DMSO stock solutions. The samples were assessed for mortality 6 days after placing seedlings in test solutions.

[4] = system: Diabrotica balteata; assay: Activity against Diabrotica balteata (corn root worm), maize sprouts; details: for mortality at 50 ppm: concentration 50 ppm; for mortality at 3.125 ppm: concentration 3.125 ppm; for percent effect (mortality or growth inhibition) at 200 ppm: 96 h, application rate 200 ppm, L2 larvae, 4 days after infestation, read-out: effect in at least one of the two categories (mortality or growth inhibition)
Procedure: Example B3: Activity Against Diabrotica Balteata (Corn Root Worm)
Maize sprouts placed onto an agar layer in 24-well microtiter plates were treated with aqueous test solutions prepared from 10′000 ppm DMSO stock solutions by spraying. After drying, the plates were infested with L2 larvae (6 to 10 per well). The samples were assessed for mortality and growth inhibition in comparison to untreated samples 4 days after infestation.

[5] = system: Spodoptera littoralis; assay: Activity against Spodoptera littoralis (Egyptian cotton leaf worm), cotton leaf discs; details: foliar, 72 h, application rate 200 ppm, L1 larvae, 3 days after infestation, read-out: control (mortality, anti-feeding effect or growth inhibition)
Procedure: Example B1: Activity Against Spodoptera littoralis (Egyptian Cotton Leaf Worm)
Cotton leaf discs were placed onto agar in 24-well microtiter plates and sprayed with aqueous test solutions prepared from 10′000 ppm DMSO stock solutions. After drying the leaf discs were infested with five L1 larvae. The samples were assessed for mortality, anti-feeding effect, and growth inhibition in comparison to untreated samples 3 days after infestation. Control of Spodoptera littoralis by a test sample is given when at least one of the categories mortality, anti-feedant effect, and growth inhibition is higher than the untreated sample.

[6] = system: Plutella xylostella; assay: Activity against Plutella xylostella (diamond back moth), artificial diet, eggs; details: 192 h, application rate 200 ppm, 8 days after infestation, read-out: effect in at least one of the two categories (mortality or growth inhibition)
Procedure: Example B9: Activity Against Plutella xylostella (Diamond Back Moth)
24-well microtiter plates with artificial diet were treated with aqueous test solutions prepared from 10′000 ppm DMSO stock solutions by pipetting. After drying, Plutella eggs were pipetted through a plastic stencil onto a gel blotting paper and the plate was closed with it. The samples were assessed for mortality and growth inhibition in comparison to untreated samples 8 days after infestation.

[7] = 144 h, test rate 24 ppm, systemic, 6 days after placing seedlings in test solutions
[8] = Myzus persicae (systemic), concentration 24 ppm
[9] = Myzus persicae, foliar, Myzus persicae (feeding/contact), concentration 3.125 ppm

CCS(=N)(=O)c1cc(C(C)(C)C#N)cnc1-c1nc2cc(C(F)(F)F)ncc2n1C (racemic) [Compound P4, 2-[5-(ethylsulfonimidoyl)-6-[3-methyl-6-(trifluoromethyl)imidazo[4,5-c]pyridin-2-yl]-3-pyridyl]-2-methyl-propanenitrile]
mortality at 200 ppm ([1]; Myzus persicae, foliar): ≥ 80%
mortality at 200 ppm [2]: ≥ 80%
mortality at 24 ppm [3, 7]: ≥ 80%

CCS(=N)(=O)c1cc(C2(C#N)CC2)cnc1-c1nc2cc(C(F)(F)F)cnc2n1C (racemic) [Described in WO19/234158 as compound P6, reference compound]
mortality at 12.5 ppm [2]: 50%

CCS(=N)(=O)c1cc(C2(C#N)CC2)ccc1-c1nc2cc(C(F)(F)F)ncc2n1C (racemic) [Described in WO19/234158 as compound P13, reference compound]
mortality at 50 ppm [4]: 0%
mortality at 12.5 ppm [2]: 0%

CCn1c(C(F)(F)F)cc2nc(-c3ncc(C4(C#N)CC4)cc3S(=N)(=O)CC)n(C)c2c1=O (racemic) [Described in WO19/234158 as compound P14, reference compound]
mortality at 50 ppm [4]: 0%

CCS(=N)(=O)c1cc(C2(C#N)CC2)ccc1-c1nc2cc(C(F)(F)F)cnc2n1C (racemic) [Described in WO19/234158 as compound P15, reference compound]
mortality at 50 ppm [4]: 0%

CCS(=N)(=O)c1cc(OC(C)(C)C#N)cnc1-c1nc2cc(C(F)(F)F)ncc2n1C (racemic) [Described in WO20/084075 as compound P1, reference compound]
mortality at 50 ppm [4]: 0%

CCS(=N)(=O)c1cc(OC(C)(C)C#N)cnc1-c1nc2cc(C(F)(F)F)nnc2n1C (racemic) [Described in WO20/084075 as compound P2, reference compound]
mortality at 12.5 ppm ([4]; concentration 12.5 ppm): 0%

CCS(=N)(=O)c1cc(OC(C)(C)C#N)cnc1-c1nc2cc(C(F)(F)F)cnc2n1C (racemic) [Described in WO20/084075 as compound P3, reference compound]
mortality at 50 ppm [4]: 80%

CCS(=O)(=O)c1cc(OC(C)(C)C#N)c(C)nc1-c1nc2cc(C(F)(F)F)cnc2n1C (racemic) [Described in WO20/084075 as compound P4, reference compound]
mortality at 3.125 ppm [4]: 0%

CCS(=N)(=O)c1cc(OC(C)(C)C#N)cnc1-c1cn2cnc(SC(F)(F)F)cc2n1 (racemic) [Described in WO20/084075 as compound P11, reference compound]
mortality at 50 ppm ([2]; concentration 50 ppm): 50%

CCS(=N)(=O)c1cc(C2(C#N)CC2)cnc1-c1nc2cc(C(F)(F)F)ncc2n1C (racemic) [reference compound]
mortality at 12.5 ppm [2]: 50%

CCS(=N)(=O)c1cc(C2(C#N)CC2)cnc1-c1nc2cc(C(F)(F)F)nnc2n1C (single isomer, unassigned) [Compound P2-B, 1-[5-(ethylsulfonimidoyl)-6-[7-methyl-3-(trifluoromethyl)imidazo[4,5-c]pyridazin-6-yl]-3-pyridyl]cyclopropanecarbonitrile]
Mortality (%) ([1]; Myzus persicae (feeding/contact), concentration 3.125 ppm): 50%

CCS(=N)(=O)c1cc(OC(C)(C)C#N)cnc1-c1cn2ccc(C(F)(F)F)cc2n1 (single isomer, unassigned) [Compound P3-A, 2-[[5-(ethylsulfonimidoyl)-6-[7-(trifluoromethyl)imidazo[1,2-a]pyridin-2-yl]-3-pyridyl]oxy]-2-methyl-propanenitrile]
percent control (mortality, anti-feedant effect or growth inhibition) at 200 ppm [5]: ≥ 80%
mortality at 200 ppm ([1]; Myzus persicae, foliar): ≥ 80%
percent effect (mortality or growth inhibition) at 200 ppm [4]: ≥ 80%

CCS(=N)(=O)c1cc(OC(C)(C)C#N)cnc1-c1cn2ccc(C(F)(F)F)cc2n1 (single isomer, unassigned) [Compound P3-B, 2-[[5-(ethylsulfonimidoyl)-6-[7-(trifluoromethyl)imidazo[1,2-a]pyridin-2-yl]-3-pyridyl]oxy]-2-methyl-propanenitrile]
percent effect (mortality or growth inhibition) at 200 ppm [6]: ≥ 80%
mortality at 24 ppm [3, 7]: ≥ 80%

CCS(=N)(=O)c1cc(C(C)(C)C#N)cnc1-c1nc2cc(C(F)(F)F)ncc2n1C (single isomer, unassigned) [Compound P4-A, 2-[5-(ethylsulfonimidoyl)-6-[3-methyl-6-(trifluoromethyl)imidazo[4,5-c]pyridin-2-yl]-3-pyridyl]-2-methyl-propanenitrile]
mortality at 200 ppm ([1]; Myzus persicae, foliar): ≥ 80%
mortality at 200 ppm [2]: ≥ 80%
mortality at 24 ppm [3, 7]: ≥ 80%

CCS(=N)(=O)c1cc(C(C)(C)C#N)cnc1-c1nc2cc(C(F)(F)F)ncc2n1C (single isomer, unassigned) [Compound P4-B, 2-[5-(ethylsulfonimidoyl)-6-[3-methyl-6-(trifluoromethyl)imidazo[4,5-c]pyridin-2-yl]-3-pyridyl]-2-methyl-propanenitrile]
percent effect (mortality or growth inhibition) at 200 ppm [6]: ≥ 80%
percent effect (mortality or growth inhibition) at 200 ppm [4]: ≥ 80%

CCS(=N)(=O)c1cc(OC(C)(C)C#N)c(C)nc1-c1nc2cc(C(F)(F)F)cnc2n1C (single isomer, unassigned) [Compound P5-A, 2-[[5-(ethylsulfonimidoyl)-2-methyl-6-[3-methyl-6-(trifluoromethyl)imidazo[4,5-b]pyridin-2-yl]-3-pyridyl]oxy]-2-methyl-propanenitrile]
percent control (mortality, anti-feedant effect or growth inhibition) at 200 ppm [5]: ≥ 80%
mortality at 200 ppm ([1]; Myzus persicae, foliar): ≥ 80%
percent effect (mortality or growth inhibition) at 200 ppm [4]: ≥ 80%
mortality at 3.125 ppm [4]: 80%
mortality at 200 ppm [2]: ≥ 80%
mortality at 24 ppm [3, 7]: ≥ 80%
mortality at 24 ppm [3, 8]: 100%

CCS(=N)(=O)c1cc(OC(C)(C)C#N)cnc1-c1cn2cnc(C(F)(F)F)cc2n1 (single isomer, unassigned) [Compound P11-B, 2-[[5-(ethylsulfonimidoyl)-6-[7-(trifluoromethyl)imidazo[1,2-c]pyrimidin-2-yl]-3-pyridyl]oxy]-2-methyl-propanenitrile]
mortality at 200 ppm [2]: ≥ 80%

CCS(=N)(=O)c1cc(OC(C)(C)C#N)cnc1-c1nc2cc(C(F)(F)F)nnc2n1C (single isomer, unassigned) [Compound P15-B, 2-[[5-(ethylsulfonimidoyl)-6-[7-methyl-3-(trifluoromethyl)imidazo[4,5-c]pyridazin-6-yl]-3-pyridyl]oxy]-2-methyl-propanenitrile]
Mortality (%) ([4]; concentration 12.5 ppm): 100%

CCS(=O)(=O)c1cc(C2(C#N)CC2)cnc1-c1nc2cc(C(F)(F)F)nnc2n1C [Described in WO18/108726 as compound H-1, reference compound]
mortality at 3.125 ppm [1, 9]: 80%

CCS(=O)(=O)c1cc(OC(C)(C)C#N)cnc1-c1nc2cc(C(F)(F)F)ncc2n1C [Described in WO18/197315 as compound P18, reference compound]
mortality at 12.5 ppm ([1]; Myzus persicae, foliar, Myzus persicae (feeding/contact), concentration 12.5 ppm): 65%

CCS(=O)(=O)c1cc(OC(C)(C)C#N)cnc1-c1cn2cnc(C(F)(F)F)cc2n1 [Described in WO18/206348 as compound P13, reference compound]
mortality at 24 ppm [3, 8]: 0%

CCS(=O)(=O)c1cc(OC(C)(C)C#N)cnc1-c1nc2cc(C(F)(F)F)cnc2n1C [Described in WO21/219810 as compound P3, reference compound]
mortality at 24 ppm [3, 8]: 50%

CCS(=O)(=O)c1cc(OC(C)(C)C#N)c(C)nc1-c1nc2cc(C(F)(F)F)cnc2n1C [Described in WO21/219810 as compound P4, reference compound]
mortality at 24 ppm [3, 8]: 0%

CCS(=O)(=O)c1cc(OC(C)(C)C#N)cnc1-c1nc2cc(C(F)(F)F)n(C3CC3)c(=O)c2n1C [Described in WO21/219810 as compound P7, reference compound]
mortality at 50 ppm ([1]; Myzus persicae, foliar, Myzus persicae (contact), concentration 50 ppm): 0%

CCS(=O)(=O)c1cc(C2(C#N)CC2)cnc1-c1nc2cc(C(F)(F)F)ncc2n1C [reference compound]
mortality at 0.781 ppm ([1]; Myzus persicae, foliar, Myzus persicae (feeding/contact), concentration 0.781 ppm): 0%

CCS(=O)(=O)c1cc(C2(C#N)CC2)ccc1-c1nc2cc(C(F)(F)F)cnc2n1C [reference compound]
mortality at 6 ppm ([3]; Myzus persicae (systemic), concentration 6 ppm): 0%

CCS(=O)(=O)c1cc(C2(C#N)CC2)cnc1-c1nc2cc(C(F)(F)F)cnc2n1C [reference compound]
mortality at 3.125 ppm [1, 9]: 80%
